Numbers after ± are expanded uncertainties.
Conditions: Liquid; Closed cell (Static) method

| Structure (SMILES) | Normal boiling temperature [°C] |
| --- | --- |
| CC(O)C(=O)O (configuration not stated) [2-hydroxypropanoic acid] | 125.1 ± 0.2 |
| CC(=O)CC(C)C [4-methylpentan-2-one] | 119.2 ± 0.2 |
